US9695155B2, “Herbicidal substituted pyrimidinyloxy benzene compounds” (E. I. DU PONT DE NEMOURS AND COMPANY, priority 2013, dated 2017)

Columns and labels:
giant foxtail [1] = experiment: Test A preemergence; type: in vivo, Setaria faberii; conditions: for Plant response rating, Foxtail, Giant: 31 g ai/ha, 0 to 100 scale where 0 is no effect and 100 is complete control, visual, approximately 10 days; for Foxtail, Giant plant response rating (0 to 100 scale): 125 g ai/ha
How it was run: (§1)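 Visual 0–100 rating (100 = complete control) taken about 10 d post-treatment relative to untreated checks. Preemergence: directed soil spray on sown loam/sand pots. Postemergence: seedlings 2–10 cm, 1–2 leaf. Non-phytotoxic solvent formulation with surfactant.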

pigweed [2] = experiment: Test A preemergence; type: in vivo, Amaranthus retroflexus; conditions: for Plant response rating, Pigweed: 31 g ai/ha, 0 to 100 scale where 0 is no effect and 100 is complete control, visual, approximately 10 days; for Pigweed plant response rating (0 to 100 scale): 125 g ai/ha
How it was run: as §1

Italian ryegrass [3] = experiment: Test A postemergence; type: in vivo, Lolium multiflorum; conditions: 0 to 100 scale, 0 no effect, 100 complete control
How it was run: as §1

barnyardgrass [4] = experiment: Test A postemergence; type: in vivo, Echinochloa crus-galli; conditions: 0 to 100 scale, 0 no effect, 100 complete control
How it was run: as §1

barnyardgrass [5] = experiment: Test B flooded paddy test; type: in vivo, Echinochloa crus-galli; conditions: Flood, 250 g ai/ha; 0 to 100 scale where 0 is no effect and 100 is complete control
How it was run: (§2)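 Scores from 0 (no effect) to 100 (complete control) are visual comparisons with controls, taken 13 to 15 days after compound was applied into floodwater 3 cm deep around 2-leaf plants.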

kochia [6] = experiment: Test A postemergence; type: in vivo, Kochia scoparia; conditions: 0 to 100 scale, 0 no effect, 100 complete control
How it was run: as §1

wheat = experiment: Test A postemergence; type: in vivo, Triticum aestivum; conditions: 0 to 100 scale, 0 no effect, 100 complete control
How it was run: as §1

giant foxtail [7] = experiment: Test A postemergence; type: in vivo, Setaria faberii; conditions: 0 to 100 scale, 0 no effect, 100 complete control
How it was run: as §1

sedge, umbrella = experiment: Test B flooded paddy test; type: in vivo, Cyperus difformis; conditions: Flood, 250 g ai/ha; 0 to 100 scale where 0 is no effect and 100 is complete control
How it was run: as §2

rice = experiment: Test B flooded paddy test; type: in vivo, Oryza sativa; conditions: Flood, 250 g ai/ha; 0 to 100 scale where 0 is no effect and 100 is complete control
How it was run: as §2

kochia [8] = experiment: Test A preemergence; type: in vivo, Kochia scoparia; conditions: for Plant response rating, Kochia: 31 g ai/ha, 0 to 100 scale where 0 is no effect and 100 is complete control, visual, approximately 10 days; for Kochia plant response rating (0 to 100 scale): 125 g ai/ha
How it was run: as §1

galium = experiment: Test A postemergence; type: in vivo, Galium aparine; conditions: 0 to 100 scale, 0 no effect, 100 complete control
How it was run: as §1

corn = experiment: Test A postemergence; type: in vivo, Zea mays; conditions: 0 to 100 scale, 0 no effect, 100 complete control
How it was run: as §1

blackgrass = experiment: Test A postemergence; type: in vivo, Alopecurus myosuroides; conditions: 0 to 100 scale, 0 no effect, 100 complete control
How it was run: as §1

Heteranthera limosa = experiment: Test B flooded paddy test; type: in vivo; conditions: Flood, 250 g ai/ha; 0 to 100 scale where 0 is no effect and 100 is complete control
How it was run: as §2

barnyardgrass [9] = experiment: Test A preemergence; type: in vivo, Echinochloa crus-galli; conditions: for Plant response rating, Barnyardgrass: 31 g ai/ha, 0 to 100 scale where 0 is no effect and 100 is complete control, visual, approximately 10 days; for Barnyardgrass plant response rating (0 to 100 scale, 0 is no effect, 100 is complete control): 125 g ai/ha
How it was run: as §1

ragweed [10] = experiment: Test A postemergence; type: in vivo, Ambrosia elatior; conditions: 0 to 100 scale, 0 no effect, 100 complete control
How it was run: as §1

pigweed [11] = experiment: Test A postemergence; type: in vivo, Amaranthus retroflexus; conditions: 0 to 100 scale, 0 no effect, 100 complete control
How it was run: as §1

Italian ryegrass [12] = experiment: Test A preemergence; type: in vivo, Lolium multiflorum; conditions: for Plant response rating, Ryegrass, Italian: 31 g ai/ha, 0 to 100 scale where 0 is no effect and 100 is complete control, visual, approximately 10 days; for Ryegrass, Italian plant response rating (0 to 100 scale): 125 g ai/ha
How it was run: as §1

ragweed [13] = experiment: Test A preemergence; type: in vivo, Ambrosia elatior; conditions: for Plant response rating, Ragweed: 31 g ai/ha, 0 to 100 scale where 0 is no effect and 100 is complete control, visual, approximately 10 days; for Ragweed plant response rating (0 to 100 scale): 125 g ai/ha
How it was run: as §1

SMILES | Plant response rating, Foxtail, Giant (giant foxtail [1]) | Foxtail, Giant plant response rating (0 to 100 scale) (giant foxtail [1]) | Plant response rating, Pigweed (pigweed [2]) | Pigweed plant response rating (0 to 100 scale) (pigweed [2]) | Plant response rating, Ryegrass, Italian (Italian ryegrass [3]; 31 g ai/ha) | Plant response rating, Ryegrass, Italian (Italian ryegrass [3]; 125 g ai/ha) | Plant response rating, Barnyardgrass (barnyardgrass [4]; 31 g ai/ha) | Plant response rating, Barnyardgrass (barnyardgrass [4]; 125 g ai/ha) | Plant response rating, Barnyardgrass (barnyardgrass [5]) | Plant response rating, Kochia (kochia [6]; 31 g ai/ha) | Plant response rating, Kochia (kochia [6]; 125 g ai/ha) | Plant response rating, Wheat (wheat; 31 g ai/ha) | Plant response rating, Wheat (wheat; 125 g ai/ha) | Plant response rating, Foxtail, Giant (giant foxtail [7]; 31 g ai/ha) | Plant response rating, Foxtail, Giant (giant foxtail [7]; 125 g ai/ha) | Plant response rating, Sedge, Umbrella (sedge, umbrella) | Plant response rating, Rice (rice) | Plant response rating, Kochia (kochia [8]) | Kochia plant response rating (0 to 100 scale) (kochia [8]) | Plant response rating, Galium (galium; 31 g ai/ha) | also measured
N#Cc1cnn(-c2c(CF)cccc2Oc2ncc(Br)cn2)c1 [Compound 243] | 0 | 100 | 0 | 80 | 0 | 0 | 0 | 0 | 0 | 20 | 30 | 0 | 20 | 0 | 10 | 0 | 0 | 0 | 90 | 0 | Plant response rating, Galium (galium; 125 g ai/ha): 10; Plant response rating, Corn (corn; 31 g ai/ha): 0; Plant response rating, Corn (corn; 125 g ai/ha): 0; Plant response rating, Blackgrass (blackgrass; 31 g ai/ha): 0; Plant response rating, Blackgrass (blackgrass; 125 g ai/ha): 30; Plant response rating, Ducksalad (Heteranthera limosa): 30; Plant response rating, Barnyardgrass (barnyardgrass [9]): 0; Barnyardgrass plant response rating (0 to 100 scale, 0 is no effect, 100 is complete control) (barnyardgrass [9]): 30; Plant response rating, Ragweed (ragweed [10]; 31 g ai/ha): 20; Plant response rating, Ragweed (ragweed [10]; 125 g ai/ha): 20; Plant response rating, Pigweed (pigweed [11]; 31 g ai/ha): 10; Plant response rating, Pigweed (pigweed [11]; 125 g ai/ha): 20; Plant response rating, Ryegrass, Italian (Italian ryegrass [12]): 0; Ryegrass, Italian plant response rating (0 to 100 scale) (Italian ryegrass [12]): 0; Plant response rating, Ragweed (ragweed [13]): 0; Ragweed plant response rating (0 to 100 scale) (ragweed [13]): 20
FCc1cccc(Oc2ncc(Br)cn2)c1-n1cc(I)cn1 [Compound 244] | 0 | 80 | 0 | 100 | 0 | 0 | 0 | 10 | 0 | 20 | 80 | 0 | 20 | 0 | 10 | 0 | 0 | 0 | 40 | 70 | Plant response rating, Galium (galium; 125 g ai/ha): 100; Plant response rating, Corn (corn; 31 g ai/ha): 0; Plant response rating, Corn (corn; 125 g ai/ha): 20; Plant response rating, Blackgrass (blackgrass; 31 g ai/ha): 0; Plant response rating, Blackgrass (blackgrass; 125 g ai/ha): 30; Plant response rating, Ducksalad (Heteranthera limosa): 40; Plant response rating, Barnyardgrass (barnyardgrass [9]): 0; Barnyardgrass plant response rating (0 to 100 scale, 0 is no effect, 100 is complete control) (barnyardgrass [9]): 20; Plant response rating, Ragweed (ragweed [10]; 31 g ai/ha): 0; Plant response rating, Ragweed (ragweed [10]; 125 g ai/ha): 0; Plant response rating, Pigweed (pigweed [11]; 31 g ai/ha): 20; Plant response rating, Pigweed (pigweed [11]; 125 g ai/ha): 100; Plant response rating, Ryegrass, Italian (Italian ryegrass [12]): 0; Ryegrass, Italian plant response rating (0 to 100 scale) (Italian ryegrass [12]): 0; Plant response rating, Ragweed (ragweed [13]): 0; Ragweed plant response rating (0 to 100 scale) (ragweed [13]): 0
FC(F)(F)Sc1cnn(-c2ccccc2Oc2ncc(Br)cn2)c1 [Compound 246] | 0 | 70 | 0 | 20 | 0 | 0 | 0 | 0 | 0 | 20 | 70 | 0 | 0 | 0 | 0 | 0 | 0 | 0 | 0 | 20 | Plant response rating, Galium (galium; 125 g ai/ha): 70; Plant response rating, Corn (corn; 31 g ai/ha): 0; Plant response rating, Corn (corn; 125 g ai/ha): 20; Plant response rating, Blackgrass (blackgrass; 31 g ai/ha): 0; Plant response rating, Blackgrass (blackgrass; 125 g ai/ha): 0; Plant response rating, Ducksalad (Heteranthera limosa): 0; Plant response rating, Barnyardgrass (barnyardgrass [9]): 0; Barnyardgrass plant response rating (0 to 100 scale, 0 is no effect, 100 is complete control) (barnyardgrass [9]): 30; Plant response rating, Ragweed (ragweed [10]; 31 g ai/ha): 0; Plant response rating, Ragweed (ragweed [10]; 125 g ai/ha): 0; Plant response rating, Pigweed (pigweed [11]; 31 g ai/ha): 20; Plant response rating, Pigweed (pigweed [11]; 125 g ai/ha): 40; Plant response rating, Ryegrass, Italian (Italian ryegrass [12]): 0; Ryegrass, Italian plant response rating (0 to 100 scale) (Italian ryegrass [12]): 0; Plant response rating, Ragweed (ragweed [13]): 0; Ragweed plant response rating (0 to 100 scale) (ragweed [13]): 0
